Assay results as given in US20100292231A1, “Indazole Compounds for Treating Inflammatory Disorders, Demyelinating Disorders and Cancers” (priority 2007, published 2010).
Where two headings read alike, the source gives them in different places.

Key:
Experiment in all cases: SelectScreen kinase specificity survey
Type in all cases: biochemical
[1] = target: T1, AURKA (Aurora A) (Homo sapiens, UniProt O14965); conditions: estimated, abridged dose response curve, read-out: Kinase inhibitory activity EC50
T1 construct: purchased Invitrogen, Inc. (SelectScreen service)
How it was run: (§1)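 230-kinase panel; kinase-specific substrate plus optical reporter; ATP 100 micromolar; 5-point inhibitor titration; 4-parameter Hill fit gives estimated EC50.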

[2] = target: T2, CLK3 (Homo sapiens, UniProt P49761); conditions: estimated, abridged dose response curve, read-out: Kinase inhibitory activity EC50
T2 construct: purchased Invitrogen (SelectScreen platform)
How it was run: as §1

[3] = target: T3, PASK (Homo sapiens, UniProt Q96RG2); conditions: estimated, abridged dose response curve, read-out: Kinase inhibitory activity EC50
T3 construct: purchased Invitrogen, Inc. (SelectScreen platform)
How it was run: as §1

[4] = target: T4, MAP4K5 (KHS1) (Homo sapiens, UniProt Q9Y4K4); conditions: estimated, abridged dose response curve, read-out: Kinase inhibitory activity EC50
T4 construct: purchased Invitrogen (SelectScreen platform)
How it was run: as §1

[5] = target: T5, RET V804L (Homo sapiens, UniProt P07949, V804L); conditions: estimated, abridged dose response curve, read-out: Kinase inhibitory activity EC50
T5 construct: purchased Invitrogen (SelectScreen)
How it was run: as §1

[6] = target: T6, STK23 (MSSK1) (Homo sapiens, UniProt Q9UPE1); conditions: estimated, abridged dose response curve, read-out: Kinase inhibitory activity EC50
T6 construct: purchased Invitrogen, Inc. (SelectScreen service)
How it was run: as §1

[7] = target: T7, HIPK1 (Myak) (Homo sapiens, UniProt Q86Z02); conditions: estimated, abridged dose response curve, read-out: Kinase inhibitory activity EC50
T7 construct: purchased Invitrogen (SelectScreen platform)
How it was run: as §1

[8] = target: T8, ROCK2 (Homo sapiens, UniProt O75116); conditions: estimated, abridged dose response curve, read-out: Kinase inhibitory activity EC50
T8 construct: purchased Invitrogen (SelectScreen platform)
How it was run: as §1

[9] = target: T9, SRMS (Srm) (Homo sapiens, UniProt Q9H3Y6); conditions: estimated, abridged dose response curve, read-out: Kinase inhibitory activity EC50
T9 construct: purchased Invitrogen (SelectScreen)
How it was run: as §1

[10] = target: T10, CAMK2B (CaMKII beta) (Homo sapiens, UniProt Q13554); conditions: estimated, abridged dose response curve, read-out: Kinase inhibitory activity EC50
T10 construct: purchased Invitrogen, Inc. (SelectScreen platform)
How it was run: as §1

[11] = target: T11, TBK1 (Homo sapiens, UniProt Q9UHD2); conditions: estimated, abridged dose response curve, read-out: Kinase inhibitory activity EC50
T11 construct: purchased Invitrogen, Inc. (SelectScreen service)
How it was run: as §1

[12] = target: T12, EPHB1 (Homo sapiens, UniProt P54762)
T12 construct: purchased Invitrogen (SelectScreen service)
How it was run: as §1

[13] = target: T13, TYRO3 (RSE) (Homo sapiens, UniProt Q06418); conditions: estimated, abridged dose response curve, read-out: Kinase inhibitory activity EC50
T13 construct: purchased Invitrogen (SelectScreen service)
How it was run: as §1

[14] = target: T14, PRKCH (PKC eta) (Homo sapiens, UniProt P24723); conditions: estimated, abridged dose response curve, read-out: Kinase inhibitory activity EC50
T14 construct: purchased Invitrogen, Inc. (SelectScreen platform)
How it was run: as §1

[15] = target: T15, MAP4K2 (GCK) (Homo sapiens, UniProt Q12851); conditions: estimated, abridged dose response curve, read-out: Kinase inhibitory activity EC50
T15 construct: purchased Invitrogen, Inc. (SelectScreen service)
How it was run: as §1

[16] = target: T16, PRKCG (PKC gamma) (Homo sapiens, UniProt P05129); conditions: estimated, abridged dose response curve, read-out: Kinase inhibitory activity EC50
T16 construct: purchased Invitrogen, Inc. (SelectScreen platform)
How it was run: as §1

[17] = target: T17, RPS6KA4 (MSK2) (Homo sapiens, UniProt O75676); conditions: estimated, abridged dose response curve, read-out: Kinase inhibitory activity EC50
T17 construct: purchased Invitrogen, Inc. (SelectScreen platform)
How it was run: as §1

[18] = target: T18, CDK2/cyclin A (Homo sapiens, UniProt P24941); conditions: estimated, abridged dose response curve, read-out: Kinase inhibitory activity EC50
T18 construct: purchased Invitrogen (SelectScreen platform)
How it was run: as §1

[19] = target: T19, RPS6KA2 (RSK3) (Homo sapiens, UniProt Q15349); conditions: estimated, abridged dose response curve, read-out: Kinase inhibitory activity EC50
T19 construct: purchased Invitrogen, Inc. (SelectScreen platform)
How it was run: as §1

[20] = target: T20, MET M1250T (Homo sapiens, UniProt P08581, M1250T); conditions: estimated, abridged dose response curve, read-out: Kinase inhibitory activity EC50
T20 construct: purchased Invitrogen (SelectScreen platform)
How it was run: as §1

[21] = target: T21, CHEK1 (CHK1) (Homo sapiens, UniProt O14757); conditions: estimated, abridged dose response curve, read-out: Kinase inhibitory activity EC50
T21 construct: purchased Invitrogen, Inc. (SelectScreen platform)
How it was run: as §1

[22] = target: T22, GRK5 (Homo sapiens, UniProt P34947)
T22 construct: purchased Invitrogen (SelectScreen platform)
How it was run: as §1

[23] = target: T23, MARK2 (Homo sapiens, UniProt Q7KZI7); conditions: estimated, abridged dose response curve, read-out: Kinase inhibitory activity EC50
T23 construct: purchased Invitrogen, Inc. (SelectScreen platform)
How it was run: as §1

[24] = target: T24, ITK (Homo sapiens, UniProt Q08881); conditions: estimated, abridged dose response curve, read-out: Kinase inhibitory activity EC50
T24 construct: purchased Invitrogen (SelectScreen)
How it was run: as §1

[25] = target: T25, MAPKAPK5 (PRAK) (Homo sapiens, UniProt Q8IW41); conditions: estimated, abridged dose response curve, read-out: Kinase inhibitory activity EC50
T25 construct: purchased Invitrogen, Inc. (SelectScreen platform)
How it was run: as §1

[26] = target: T26, SGK2 (Homo sapiens, UniProt Q9HBY8); conditions: estimated, abridged dose response curve, read-out: Kinase inhibitory activity EC50
T26 construct: purchased Invitrogen, Inc. (SelectScreen platform)
How it was run: as §1

[27] = target: T27, MST1R (RON) (Homo sapiens, UniProt Q04912); conditions: estimated, abridged dose response curve, read-out: Kinase inhibitory activity EC50
T27 construct: purchased Invitrogen (SelectScreen platform)
How it was run: as §1

T19 sequence (Q15349 whole entry): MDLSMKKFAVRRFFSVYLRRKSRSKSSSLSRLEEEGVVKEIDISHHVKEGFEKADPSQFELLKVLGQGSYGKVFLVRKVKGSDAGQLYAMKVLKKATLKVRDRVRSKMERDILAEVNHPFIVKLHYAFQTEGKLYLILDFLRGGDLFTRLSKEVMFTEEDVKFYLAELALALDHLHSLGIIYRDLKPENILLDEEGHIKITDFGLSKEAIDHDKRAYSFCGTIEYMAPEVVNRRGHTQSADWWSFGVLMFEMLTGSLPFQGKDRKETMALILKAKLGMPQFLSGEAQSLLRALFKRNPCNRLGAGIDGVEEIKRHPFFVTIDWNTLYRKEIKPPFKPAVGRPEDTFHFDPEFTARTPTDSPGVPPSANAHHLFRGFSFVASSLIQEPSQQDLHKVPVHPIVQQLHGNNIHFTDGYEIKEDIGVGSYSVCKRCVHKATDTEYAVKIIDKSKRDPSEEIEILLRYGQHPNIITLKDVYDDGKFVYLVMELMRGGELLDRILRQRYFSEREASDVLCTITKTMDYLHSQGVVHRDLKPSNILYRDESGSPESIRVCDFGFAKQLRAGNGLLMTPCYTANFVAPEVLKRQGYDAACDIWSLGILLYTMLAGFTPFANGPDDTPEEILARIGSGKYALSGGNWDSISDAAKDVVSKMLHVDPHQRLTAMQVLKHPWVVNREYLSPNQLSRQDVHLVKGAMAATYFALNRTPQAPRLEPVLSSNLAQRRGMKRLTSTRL
T5 sequence (P07949 29-1114 V804L): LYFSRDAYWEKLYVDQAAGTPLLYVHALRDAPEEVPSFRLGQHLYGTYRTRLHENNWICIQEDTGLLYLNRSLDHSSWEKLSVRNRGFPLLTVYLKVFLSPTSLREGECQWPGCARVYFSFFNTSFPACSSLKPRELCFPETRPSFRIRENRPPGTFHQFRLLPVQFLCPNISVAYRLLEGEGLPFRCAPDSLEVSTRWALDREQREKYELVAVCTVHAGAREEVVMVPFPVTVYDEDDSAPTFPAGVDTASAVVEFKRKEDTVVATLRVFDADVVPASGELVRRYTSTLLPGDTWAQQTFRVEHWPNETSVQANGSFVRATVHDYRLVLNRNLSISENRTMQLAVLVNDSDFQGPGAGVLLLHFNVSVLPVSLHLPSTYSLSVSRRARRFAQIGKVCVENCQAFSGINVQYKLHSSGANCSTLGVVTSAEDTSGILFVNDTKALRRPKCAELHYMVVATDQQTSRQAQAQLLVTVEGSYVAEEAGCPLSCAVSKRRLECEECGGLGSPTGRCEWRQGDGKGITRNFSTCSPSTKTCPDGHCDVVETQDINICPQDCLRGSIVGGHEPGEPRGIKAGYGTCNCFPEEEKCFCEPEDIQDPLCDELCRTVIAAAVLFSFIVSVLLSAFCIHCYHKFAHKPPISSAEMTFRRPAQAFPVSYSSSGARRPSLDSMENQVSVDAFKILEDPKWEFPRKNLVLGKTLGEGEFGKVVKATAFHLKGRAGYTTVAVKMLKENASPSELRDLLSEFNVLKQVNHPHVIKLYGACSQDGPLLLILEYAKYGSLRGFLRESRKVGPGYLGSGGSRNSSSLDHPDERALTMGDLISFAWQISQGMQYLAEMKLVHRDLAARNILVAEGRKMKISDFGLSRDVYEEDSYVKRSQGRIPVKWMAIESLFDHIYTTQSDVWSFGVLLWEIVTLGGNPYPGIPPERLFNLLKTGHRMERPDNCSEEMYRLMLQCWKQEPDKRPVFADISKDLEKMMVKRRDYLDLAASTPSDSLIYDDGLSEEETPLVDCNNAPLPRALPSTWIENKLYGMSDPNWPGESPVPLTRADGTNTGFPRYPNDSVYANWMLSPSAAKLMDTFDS
T6 sequence (Q9UPE1 whole entry): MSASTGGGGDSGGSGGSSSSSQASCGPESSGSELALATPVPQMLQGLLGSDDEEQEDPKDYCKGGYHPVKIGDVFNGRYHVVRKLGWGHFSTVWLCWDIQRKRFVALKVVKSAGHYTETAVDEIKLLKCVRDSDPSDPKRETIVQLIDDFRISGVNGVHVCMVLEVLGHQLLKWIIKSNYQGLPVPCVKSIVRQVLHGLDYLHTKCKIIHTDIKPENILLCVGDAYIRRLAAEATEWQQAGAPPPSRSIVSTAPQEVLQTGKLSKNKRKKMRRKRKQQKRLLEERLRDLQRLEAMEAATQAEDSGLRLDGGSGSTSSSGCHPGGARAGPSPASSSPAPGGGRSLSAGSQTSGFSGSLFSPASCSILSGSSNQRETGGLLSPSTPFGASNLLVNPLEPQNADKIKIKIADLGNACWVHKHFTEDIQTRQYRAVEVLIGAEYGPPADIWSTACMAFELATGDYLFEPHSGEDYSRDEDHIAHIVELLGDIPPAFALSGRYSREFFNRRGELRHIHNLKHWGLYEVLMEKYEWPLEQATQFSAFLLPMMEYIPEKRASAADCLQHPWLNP
T12 sequence (P54762 18-984): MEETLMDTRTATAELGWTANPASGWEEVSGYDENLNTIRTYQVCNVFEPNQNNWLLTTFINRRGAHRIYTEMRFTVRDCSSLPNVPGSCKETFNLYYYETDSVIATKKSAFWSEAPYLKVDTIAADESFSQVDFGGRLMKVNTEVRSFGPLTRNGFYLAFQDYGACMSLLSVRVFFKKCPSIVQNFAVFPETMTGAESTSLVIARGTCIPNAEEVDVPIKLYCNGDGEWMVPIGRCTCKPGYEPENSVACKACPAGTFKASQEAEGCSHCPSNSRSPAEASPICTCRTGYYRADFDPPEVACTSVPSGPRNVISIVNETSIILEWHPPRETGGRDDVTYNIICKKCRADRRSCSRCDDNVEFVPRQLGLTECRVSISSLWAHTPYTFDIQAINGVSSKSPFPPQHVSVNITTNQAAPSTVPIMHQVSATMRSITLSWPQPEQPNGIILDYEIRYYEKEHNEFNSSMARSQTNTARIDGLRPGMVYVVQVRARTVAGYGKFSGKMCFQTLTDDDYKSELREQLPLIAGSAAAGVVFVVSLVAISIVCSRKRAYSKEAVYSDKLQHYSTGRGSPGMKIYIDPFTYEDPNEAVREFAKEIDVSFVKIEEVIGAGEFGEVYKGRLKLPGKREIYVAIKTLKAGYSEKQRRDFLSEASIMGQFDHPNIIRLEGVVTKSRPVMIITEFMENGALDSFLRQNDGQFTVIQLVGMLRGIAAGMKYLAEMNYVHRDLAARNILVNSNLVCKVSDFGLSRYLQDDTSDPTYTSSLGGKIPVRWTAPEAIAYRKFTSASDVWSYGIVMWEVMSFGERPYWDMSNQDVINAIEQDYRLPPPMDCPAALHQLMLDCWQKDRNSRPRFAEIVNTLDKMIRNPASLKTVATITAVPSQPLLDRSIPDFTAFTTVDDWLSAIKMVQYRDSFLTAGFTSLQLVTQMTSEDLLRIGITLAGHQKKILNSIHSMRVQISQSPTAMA
T22 sequence (P34947 whole entry): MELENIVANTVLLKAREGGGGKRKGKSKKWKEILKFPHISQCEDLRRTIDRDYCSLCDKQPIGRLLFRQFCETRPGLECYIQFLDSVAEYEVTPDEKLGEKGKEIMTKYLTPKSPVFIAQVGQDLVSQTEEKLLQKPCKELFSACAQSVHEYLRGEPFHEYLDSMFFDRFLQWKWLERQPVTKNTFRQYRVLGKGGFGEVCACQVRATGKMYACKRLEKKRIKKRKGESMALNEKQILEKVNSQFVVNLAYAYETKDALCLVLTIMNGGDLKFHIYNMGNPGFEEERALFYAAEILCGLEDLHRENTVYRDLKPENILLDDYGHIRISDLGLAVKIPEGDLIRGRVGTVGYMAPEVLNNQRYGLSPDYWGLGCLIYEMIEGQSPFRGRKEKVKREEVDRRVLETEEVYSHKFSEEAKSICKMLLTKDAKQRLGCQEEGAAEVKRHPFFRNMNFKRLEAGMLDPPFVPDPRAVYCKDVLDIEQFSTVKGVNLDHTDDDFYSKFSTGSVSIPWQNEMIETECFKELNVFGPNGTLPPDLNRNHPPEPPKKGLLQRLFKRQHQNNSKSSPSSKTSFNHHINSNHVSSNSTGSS
T26 sequence (Q9HBY8 whole entry): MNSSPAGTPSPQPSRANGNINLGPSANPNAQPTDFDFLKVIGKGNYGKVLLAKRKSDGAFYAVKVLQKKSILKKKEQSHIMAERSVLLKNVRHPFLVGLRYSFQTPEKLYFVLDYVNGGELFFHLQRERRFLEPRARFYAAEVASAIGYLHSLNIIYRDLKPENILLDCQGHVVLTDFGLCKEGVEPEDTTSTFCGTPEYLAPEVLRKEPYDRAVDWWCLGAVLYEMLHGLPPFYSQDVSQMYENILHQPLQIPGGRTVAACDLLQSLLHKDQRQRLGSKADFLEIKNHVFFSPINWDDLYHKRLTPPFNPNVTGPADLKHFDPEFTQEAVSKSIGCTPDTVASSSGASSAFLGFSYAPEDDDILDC
T21 sequence (O14757 whole entry): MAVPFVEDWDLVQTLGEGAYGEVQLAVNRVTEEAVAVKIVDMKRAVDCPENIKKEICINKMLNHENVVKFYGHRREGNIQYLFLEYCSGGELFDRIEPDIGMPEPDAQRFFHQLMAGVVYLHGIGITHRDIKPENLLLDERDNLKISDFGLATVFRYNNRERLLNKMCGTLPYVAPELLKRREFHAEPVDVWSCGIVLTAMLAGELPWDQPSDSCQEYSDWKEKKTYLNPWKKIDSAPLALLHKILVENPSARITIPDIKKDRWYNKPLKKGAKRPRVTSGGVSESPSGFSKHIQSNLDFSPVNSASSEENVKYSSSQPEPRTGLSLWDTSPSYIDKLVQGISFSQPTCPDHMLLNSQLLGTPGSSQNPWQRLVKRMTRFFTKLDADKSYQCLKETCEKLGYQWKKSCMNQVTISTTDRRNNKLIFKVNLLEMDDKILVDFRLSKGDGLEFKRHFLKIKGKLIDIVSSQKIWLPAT

| SMILES | EC50 [1] | EC50 [2] | EC50 [3] | EC50 [4] | EC50 [5] | EC50 [6] | EC50 [7] | EC50 [8] | EC50 [9] | EC50 [10] | EC50 [11] | EC50 [13] | EC50 [14] | EC50 [15] | EC50 [16] | EC50 [17] | EC50 [18] | EC50 [19] | EC50 [20] | EC50 [21] | also measured |
| --- | --- | --- | --- | --- | --- | --- | --- | --- | --- | --- | --- | --- | --- | --- | --- | --- | --- | --- | --- | --- | --- |
| CCN(CC)CCNc1ccc2ncn3c4ccc(O)cc4c(=O)c1c23 [Symadex, 5-(2-(diethylamino)ethylamino)-8-hydroxy-6H-imidazo[4,5,1-de]acridin-6-one, reference compound] | > 5 µM | > 5 µM | 4.32 µM | 2.43 µM | 0.735 µM | > 5 µM | > 5 µM | > 5 µM | > 5 µM | > 5 µM | > 5 µM | 2.44 µM | > 5 µM | 4.93 µM | 1.89 µM | > 5 µM | > 5 µM | 0.46 µM | > 5 µM | > 5 µM | EC50 [12]: > 5 µM; EC50 [22]: > 5 µM; EC50 [23]: 2.02 µM; EC50 [24]: > 5 µM; EC50 [25]: > 5 µM; EC50 [26]: > 5 µM; EC50 [27]: > 5 µM |
| CN(C)CCCNc1ccc2ncn3c4ccc5[nH]ncc5c4c(=O)c1c23 [Compound (IV)] | > 5 µM | > 5 µM | 1.23 µM | > 5 µM | 0.864 µM | > 5 µM | 1.21 µM | 0.963 µM | > 5 µM | > 5 µM | > 5 µM | 3.57 µM | 2.13 µM | > 5 µM | > 5 µM | > 5 µM | 0.822 µM | 0.84 µM | > 5 µM | > 5 µM | EC50 ([12]; EPHB1, estimated, abridged dose response curve, read-out: Kinase inhibitory activity EC50): > 5 µM; EC50 ([22]; GRK5, estimated, abridged dose response curve, read-out: Kinase inhibitory activity EC50): > 5 µM; EC50 [23]: 3.49 µM; EC50 [24]: 0.637 µM; EC50 [25]: > 5 µM; EC50 [26]: > 5 µM; EC50 [27]: > 5 µM |
